Assay results taken from patent publication US8889638B2, “Stimulus-triggered prodrugs” (The Regents of the University of California, priority 2010, dated 2014).

Assays:
[1] = Cleavage of boronic ester/acid protected compounds by H2O2 (UV-Vis, rate constant, HPLC); format: physicochemical; conditions: for k, pseudo first-order rate constants calculated with an excess of H2O2: 50 μM in HEPES buffer pH 7.5, room temperature
Protocol: (§1) Absorption spectra of compounds B1-B16 were taken on a Perkin-Elmer Lambda 25 UV-visible spectrophotometer. To a 1.0 mL solution at 0.05 mM concentration in HEPES buffer (50 mM, pH 7.5) was added H2O2 (10 uL (0.09 M) in HEPES for compounds B1-B12 and B14-B16, 10 uL (0.9 M) in HEPES for compound B3, and 2.8 uL (0.09 M) in HEPES for compound B13). Spectra were monitored over time at room temperature. Absorption spectra of compounds B17-B21 were taken on a Perkin-Elmer Lambda 25 UV-visible spectrophotometer. To a 1.0 mL solution at 0.05 mM concentration of compounds 1-7 in HEPES buffer (50 mM, pH=7.5) was added H2O2 (10 uL, 0.09 M in HEPES) or KO2 (0.10 mM) with catalase (5 U). Hydrolytic stability was measured by monitoring samples of B19-B21 in HEPES buffer for a 24 h time period. Spectra were monitored over time at room temperature.
The pseudo-first order rate constant was calculated by monitoring the absorption spectra over time in the presence of excess hydrogen peroxide. To a 1.0 mL solution of compounds B1-B3 and B10-B14 in HEPES buffer (50 mM, pH 7.5) at 50 μM was added H2O2 to final concentrations of 150 μM, 250 μM, 500 μM, 750 μM, and 900 μM. Spectra were monitored over 15-30 min at room temperature with at least 50 spectra recorded. The change in absorption at 302 nm for B1-B3, 272 nm for B10, 312 nm for B11, 268 for B12, 306 nm for B13, and 303 nm for B14 were monitored. For compounds B1-B3 and B10-B11, the rate constant (kobs) was found from monitoring the appearance of the monitored absorption peak by plotting the linear slope of ln [(A∞−At)/(A∞)] vs. time (where A∞ is the absorbance of a 50 μM sample of the methyl salicylate for B1-B3, maltol for B10, and 1,2-HOPO for B11). For compounds B12-B14 the rate constant (kobs) was found from monitoring the disappearance of the monitored absorption peak by plotting the linear slope of ln [(A−AZBG)/(A0−AZBG)] vs. time (where AZBG is the absorbance of a 50 μM sample of the ZBG and A0 is the initial absorbance of […]).^3 The rate of conversion was determined from the slope of the line of kobs vs. [H2O2]. The pseudo-first order rate constant was calculated following literature procedure.^[15] To a 1.0 mL solution of compounds B19-B21 in HEPES buffer at 50 μM was added H2O2 to final concentrations of 150 μM, 250 μM, 500 μM, 750 μM, and 900 μM. Spectra were monitored over 15-30 min at room temperature with at least 50 spectra recorded. The change in absorption at 292 nm for B19 and 252 nm for B20 and B21 were monitored. The rate constant (kobs) was found from the linear slope of ln [(A−AZBG)/(A0−AZBG)] vs. time (where AZBG is the absorbance of a 50 μM sample of the ZBG and A0 is the initial absorbance of B19-B21). The rate of conversion was determined from the slope of the line of kobs vs. [H2O2].
Analytical HPLC was performed on a HP Series 1050 system equipped with a Vydac® C18 reverse phase column (218 TP, 250×4.6 mm, 5 μm). […] Starting with 95% A and 5% B, an […] gradient was run for 15 min to a final solvent mixture of 5% A and 95% B, which was held for 5 min before ramping back down to 95% A and 5% B in 2 min and holding for an additional 4 min. Compounds were prepared in HEPES buffer (50 mM, pH 7.5) at a concentration of 1 mM. Retention times of compounds were determined under identical HPLC conditions prior to and after reaction with H2O2. LC-MS(+) was performed on compounds B6, B15 and B16 to confirm cleavage of the boronic ester to the phenolic moiety.

[2] = Hydrolytic stability of boronic ester compounds in HEPES buffer; format: physicochemical; conditions: for hydrolytic stability in buffer: 4 h period
Protocol: as §1

[3] = biological target: T1, MMP-9 (catalytic domain, human, recombinant) (Homo sapiens, UniProt P14780); assay: MMP-9 fluorescence-based inhibition assay with and without β-glucosidase; format: biochemical; conditions: for inhibition of MMP-9 when exposed to β-glucosidase: 1 mM for 2, 4 mM for 4, 125 μM for 6; for inhibition of MMP-9 in the absence of β-glucosidase: 1 mM for 2, 4 mM for 4, 125 μM for 6, 16 μM for 8
T1 construct: MMP-9 (catalytic domain, human, recombinant); purchased BIOMOL International
Protocol: MMP-9 (catalytic domain, human, recombinant), MMP-8 (catalytic domain, human, recombinant), and the assay kit were purchased from BIOMOL International. The assays were carried out according to the procedure provided with the kit. MMP activity was measured in 96-well plates using a Bio-Tek Flx 800 fluorescent plate reader. The ZBGs and their protected analogs were dissolved in DMSO and diluted in HEPES buffer (50 mM, pH 7.5) to a concentration of 10 mM for 1-2, 40 mM for 3-4, and 1.25 mM for 5-6. Each well contained 20 μL, of MMP-9 (0.45 U/mL), inhibitor (10 μL, of 1-6), 5 μL, of β-glucosidase (1 U/μL) when used, and buffer for a total volume of 99 μL. These were incubated for 1 h at 37° C. […] The reaction was initiated by the addition of 1 μL (400 μM) of the fluorescent substrate (Mca-Pro-Leu-Gly-Leu-Dpa-Ala-Arg-NH2 where Mca=(7-methoxycoumarin-4-yl)-acetyl and Dpa=N-3-(2,4-dinitrophenyl)-L-α-β-diaminopropionyl)) and kinetic activity was measured every minute for 30 min with excitation and emission wavelengths at 335 nm and 405 nm, respectively. Enzyme activity with inhibitor was calculated with respect to the control experiment (no inhibitor present). Measurements were performed in duplicate in two independent experiments.
For Cmpds 7 and 8, 1 mL sample in HEPES buffer at a concentration of 1 mM was incubated at 37° C. with 250 U of β-glucosidase (1 U/μL) for 4 h giving a final concentration of 0.8 mM of the inhibitor. After 4 h, a 200 μL aliquot was collected and filtered through a microcentrifuge filter. UV-Vis absorption spectroscopy was to verify that the concentration of 1,2-HOPO-2 was 0.71±0.2 mM in each of the samples using the extinction coefficient for 1,2-HOPO-2 (7) calculated at 346 nm (4,279.3±372 M-1 cm-1). Each well was made up with 20 μL of MMP-9 (0.45 U/mL), inhibitor (2 μL, for 7 and 8), and buffer for a total volume of 99 μL. These were incubated for 30 min at 37° C. For MMP-8 inhibition assays, each of the samples was diluted to 1 μM in HEPES buffer and 15 μL of each were added to 20 μL of MMP-8 (0.092 U/mL) and buffer for a total of 99 μL. The reaction was initiated by the addition of 1 μL (400 μM) of the fluorescent substrate and kinetic activity was measured every minute for 30 min with excitation and emission wavelengths at 335 nm and 405 nm, respectively. Enzyme activity with inhibitor was calculated with respect to the control experiment (no inhibitor present). A control sample was also performed, in which an aliquot of 250 U of β-glucosidase (1 U/μL) with 1 mL of HEPES buffer was incubated for 4 h at 37° C., filtered through a microcentrifuge filter, and evaluated in the MMP assay to confirm that no inhibition is observed with β-glucosidase. Measurements were performed in duplicate in two independent experiments. […]

[4] = Hydrolytic stability of sulfonate esters in HEPES buffer; format: physicochemical
Protocol: Absorption spectra of compounds were taken on a Perkin-Elmer Lambda 25 UV-Visible Spectrophotometer. To a 1.0 mL solution at 0.05 mM concentration of each compound in HEPES buffer (50 mM, pH 7.5) was added H2O2 (10 μL, 0.09M in HEPES) and absorption spectra were monitored over time at room temperature. Hydrolytic stability was measured by monitoring each sample in HEPES buffer over a 24 hour time period.

T1 sequence (P14780 107-444 limits assumed): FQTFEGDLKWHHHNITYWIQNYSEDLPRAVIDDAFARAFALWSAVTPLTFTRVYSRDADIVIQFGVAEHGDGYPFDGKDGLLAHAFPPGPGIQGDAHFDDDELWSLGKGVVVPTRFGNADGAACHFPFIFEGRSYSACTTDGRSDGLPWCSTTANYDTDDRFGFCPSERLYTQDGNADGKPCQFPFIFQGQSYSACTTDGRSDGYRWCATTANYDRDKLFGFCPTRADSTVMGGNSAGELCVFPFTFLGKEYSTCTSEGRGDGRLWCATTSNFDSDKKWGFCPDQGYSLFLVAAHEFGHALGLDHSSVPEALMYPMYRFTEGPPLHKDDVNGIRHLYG

Q: Which “k, pseudo first-order rate constants calculated with an excess of H2O2” value [1] does the source give for CC1(C)OB(c2ccc(COc3cccc4cccnc34)cc2)OC1(C)C [Compound B14, 8-((4-(4,4,5,5-Tetramethyl-1,3,2-dioxaborolan-2-yl)benzyl)oxy)quinoline] here?
A: 4.1 ± 0.2 M⁻¹ s⁻¹

Q: For COC(=O)c1ccccc1OCc1ccc(B2OC(C)(C)C(C)(C)O2)cc1 [Compound B1, Methyl 2-((4-(4,4,5,5-tetramethyl-1,3,2-dioxaborolan-2-yl)benzyl)oxy)benzoate], which “k, pseudo first-order rate constants calculated with an excess of H2O2” value [1] is on record?
A: 1.12 ± 0.04 M⁻¹ s⁻¹

Q: What about the “hydrolytic stability in buffer” value [2] of the same compound?
A: stable

Q: With Cc1occc(=O)c1OC1OC(CO)C(O)C(O)C1O [Compound 4, 2-Methyl-4H-pyran-4-one-3-β-D-glucopyranoside] as the compound, how does the “inhibition of MMP-9 when exposed to β-glucosidase” value (shortened to “inhibition of MMP-9 when exposed”) [3] read?
A: complete restoration of inhibition

Q: And the “inhibition of MMP-9 in the absence of β-glucosidase” value (“inhibition … of β-glucosidase” below) [3]?
A: attenuated inhibition

Q: Which results are given for Cc1occc(=O)c1OC(=O)OCc1ccc(B2OC(C)C(C)(C)O2)cc1 (stereo not drawn) [Compound B21, 2-methyl-4-oxo-4H-pyran-3-yl 4-(4,4,5-trimethyl-1,3,2-dioxaborolan-2-yl)benzyl carbonate]?
A: rate constant of conversion with an excess of H2O2 ([1]; pseudo-first order conditions, HEPES buffer): 6.7 M⁻¹ s⁻¹; hydrolysis in buffer ([2]; 24 h time period): > 50%

Q: With CC1(C)OB(c2ccc(COc3cccccc3=O)cc2)OC1(C)C [Compound B13, 2-((4-(4,4,5,5-Tetramethyl-1,3,2-dioxaborolan-2-yl)benzyl)oxy)cyclohepta-2,4,6-trienone] as the compound, how does the “k, pseudo first-order rate constants calculated with an excess of H2O2” value [1] read?
A: 2.9 ± 0.1 M⁻¹ s⁻¹

Q: With COC(=O)c1ccccc1OC(=O)OCc1ccc(B2OC(C)(C)C(C)(C)O2)cc1 [Compound B2, Methyl 2-((((4-(4,4,5,5-tetramethyl-1,3,2-dioxaborolan-2-yl)benzyl)oxy)carbonyl)oxy)benzoate] as the compound, how does the “k, pseudo first-order rate constants calculated with an excess of H2O2” value [1] read?
A: 2.7 ± 0.1 M⁻¹ s⁻¹

Q: What about the “hydrolytic stability in buffer” value [2] of the same compound?
A: spontaneous hydrolytic cleavage

Q: For Cc1c(OCc2ccc(B3OC(C)(C)C(C)(C)O3)cc2)c(=O)ccn1C [Compound B12, 1,2-Dimethyl-3-((4-(4,4,5,5-tetramethyl-1,3,2-dioxaborolan-2-yl)benzyl)oxy)pyridin-4(1H)-one], which “k, pseudo first-order rate constants calculated with an excess of H2O2” value [1] is on record?
A: 3.5 ± 0.3 M⁻¹ s⁻¹

Q: Which “stability in aqueous buffer in the absence of H2O2” value [4] does the source give for O=c1ccccn1OS(=O)(=O)c1ccc([N+](=O)[O-])cc1[N+](=O)[O-] [PZBG-1d, 2-Oxopyridin-1(2H)-yl 2,4-dinitrobenzenesulfonate] here?
A: rapid hydrolytic cleavage

Q: Which “k, pseudo first-order rate constants calculated with an excess of H2O2” value [1] does the source give for COC(=O)c1ccccc1B1OC(C)(C)C(C)(C)O1 [Compound B3, Methyl 2-(4,4,5,5-tetramethyl-1,3,2-dioxaborolan-2-yl)benzoate] here?
A: 0.031 ± 0.002 M⁻¹ s⁻¹

Q: And the “hydrolytic stability in buffer” value [2]?
A: comparable to the ether linkage used in B1

Q: Which “inhibition of MMP-9 when exposed” value [3] does the source give for O=c1ccccn1OC1OC(CO)C(O)C(O)C1O [Compound 2, 1-Hydroxypyridin-2(1H)-one-β-D-glucopyranoside] here?
A: complete restoration of inhibition

Q: What about the “inhibition … of β-glucosidase” value [3] of the same compound?
A: attenuated inhibition

Q: For Cc1occc(=S)c1OC1OC(CO)C(O)C(O)C1O [Compound 6, 2-Methyl-4H-pyran-4-thione-3-β-D-glucopyranoside], which “inhibition of MMP-9 when exposed” value [3] is on record?
A: complete restoration of inhibition

Q: What about the “inhibition … of β-glucosidase” value [3] of the same compound?
A: attenuated inhibition
